From ChEMBL document CHEMBL1201862, “PubChem BioAssay data set” (2004)
Activity calls are given as the source filed them.

Assays:
[1] = decrease of insulin promoter-GFP reporter – imaging, high-content screening, mouse beta cells (AID 1628); type: functional; conditions: MIN6
[2] = Luminescence Cell-Based Dose Retest to Confirm Inhibitors of Cancer Stem Cells. [Related pubchem assays (depositor defined):AID2717, AID2721]; type: functional; conditions: Homo sapiens
[3] = MIN6 cell viability loss – mouse insulinoma, cytotoxicity control, dose response (AID 2122); type: functional;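 further: confirmatory high-throughput counterscreen run to flag cytotoxic compounds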
[4] = biological target: T1, Mannose-6-phosphate isomerase (Homo sapiens, UniProt P34949); assay: phosphomannose isomerase inhibition – biochemical, fluorescence intensity, confirmation (AID 1535)
T1 sequence (P34949 whole entry): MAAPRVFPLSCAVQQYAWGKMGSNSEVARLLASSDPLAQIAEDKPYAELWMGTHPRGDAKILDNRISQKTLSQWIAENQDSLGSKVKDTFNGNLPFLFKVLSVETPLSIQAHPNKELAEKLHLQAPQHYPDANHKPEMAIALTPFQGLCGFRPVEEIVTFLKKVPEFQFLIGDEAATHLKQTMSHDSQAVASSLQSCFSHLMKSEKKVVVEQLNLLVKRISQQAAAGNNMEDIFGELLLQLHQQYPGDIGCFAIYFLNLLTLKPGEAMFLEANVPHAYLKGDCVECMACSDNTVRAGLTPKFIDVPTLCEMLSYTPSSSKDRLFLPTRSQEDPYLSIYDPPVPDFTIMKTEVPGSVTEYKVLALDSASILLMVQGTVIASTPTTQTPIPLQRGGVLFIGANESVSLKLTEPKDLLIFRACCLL

Phosphomannomutase 2 = Phosphomannomutase 2 (Homo sapiens, UniProt O15305); assay: Counter screen SAR assay for PMM2 inhibitors via a fluorescence intensity assay. [Related pubchem assays (depositor defined):AID1545, AID1574]
Chain of Phosphomannomutase 2 (O15305 whole entry): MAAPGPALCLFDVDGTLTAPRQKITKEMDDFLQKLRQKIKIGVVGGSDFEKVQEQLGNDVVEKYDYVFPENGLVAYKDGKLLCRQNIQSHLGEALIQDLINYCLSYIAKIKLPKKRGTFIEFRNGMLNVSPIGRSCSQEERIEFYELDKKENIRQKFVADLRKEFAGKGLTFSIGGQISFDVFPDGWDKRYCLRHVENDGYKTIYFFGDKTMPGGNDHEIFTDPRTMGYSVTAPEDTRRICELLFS

[5] = biological target: T2, E3 ubiquitin-protein ligase XIAP (Homo sapiens, UniProt P98170); assay: small molecules displacing peptide from XIAP – biochemical, IAP family, fluorescence polarization (AID 1018); type: functional
T2 sequence (P98170 whole entry): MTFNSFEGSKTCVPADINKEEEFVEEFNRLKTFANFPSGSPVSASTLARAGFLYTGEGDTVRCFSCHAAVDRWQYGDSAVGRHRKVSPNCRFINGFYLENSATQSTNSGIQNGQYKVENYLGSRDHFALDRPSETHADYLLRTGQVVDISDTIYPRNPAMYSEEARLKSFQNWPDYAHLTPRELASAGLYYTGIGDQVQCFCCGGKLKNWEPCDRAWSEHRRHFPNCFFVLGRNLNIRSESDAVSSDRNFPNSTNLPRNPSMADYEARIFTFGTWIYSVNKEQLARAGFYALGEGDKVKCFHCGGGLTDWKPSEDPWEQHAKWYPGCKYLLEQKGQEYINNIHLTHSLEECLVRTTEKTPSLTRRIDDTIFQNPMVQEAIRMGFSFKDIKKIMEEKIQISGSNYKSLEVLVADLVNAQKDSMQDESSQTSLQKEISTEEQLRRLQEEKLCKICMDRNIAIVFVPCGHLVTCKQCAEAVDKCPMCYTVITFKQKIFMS

[6] = biological target: T2, E3 ubiquitin-protein ligase XIAP; assay: Counter Screen using XIAP-Bir3 for Chemical Antagonists of Bir1/2 domains of IAP-family anti-apoptotic proteins. [Related pubchem assays (depositor defined):AID1018, AID1449, AID1514, AID1638, AID1749, AID1750, AID488957, AID488963]
[7] = biological target: Glyceraldehyde-3-phosphate dehydrogenase (Homo sapiens, UniProt P04406)
Chain of Glyceraldehyde-3-phosphate dehydrogenase (P04406 whole entry): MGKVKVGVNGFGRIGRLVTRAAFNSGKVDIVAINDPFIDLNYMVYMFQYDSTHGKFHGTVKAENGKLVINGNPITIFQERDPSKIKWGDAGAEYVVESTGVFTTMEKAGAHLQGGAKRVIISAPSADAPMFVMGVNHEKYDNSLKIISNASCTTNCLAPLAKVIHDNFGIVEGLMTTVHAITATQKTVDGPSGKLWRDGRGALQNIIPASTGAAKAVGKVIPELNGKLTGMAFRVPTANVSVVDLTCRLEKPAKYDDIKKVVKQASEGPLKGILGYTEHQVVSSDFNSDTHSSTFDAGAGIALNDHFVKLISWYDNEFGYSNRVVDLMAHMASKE

[8] = biological target: T3, Dual specificity protein phosphatase 6 (Rattus norvegicus, UniProt Q64346)
T3 sequence (Q64346 whole entry): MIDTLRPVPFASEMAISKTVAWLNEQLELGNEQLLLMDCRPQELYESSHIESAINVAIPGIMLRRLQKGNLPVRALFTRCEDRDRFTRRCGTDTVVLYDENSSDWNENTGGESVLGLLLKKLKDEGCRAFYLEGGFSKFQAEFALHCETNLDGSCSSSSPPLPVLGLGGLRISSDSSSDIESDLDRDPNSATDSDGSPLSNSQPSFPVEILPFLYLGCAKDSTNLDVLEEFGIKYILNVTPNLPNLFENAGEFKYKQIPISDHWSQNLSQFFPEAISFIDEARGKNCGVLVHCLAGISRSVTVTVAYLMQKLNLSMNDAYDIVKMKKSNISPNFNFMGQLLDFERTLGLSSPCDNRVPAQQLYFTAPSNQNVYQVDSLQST

[9] = biological target: T3, Dual specificity protein phosphatase 6; type: functional
[10] = biological target: T4, Tyrosine-protein phosphatase non-receptor type 7 (Homo sapiens, UniProt P35236); type: functional
T4 sequence (P35236 whole entry): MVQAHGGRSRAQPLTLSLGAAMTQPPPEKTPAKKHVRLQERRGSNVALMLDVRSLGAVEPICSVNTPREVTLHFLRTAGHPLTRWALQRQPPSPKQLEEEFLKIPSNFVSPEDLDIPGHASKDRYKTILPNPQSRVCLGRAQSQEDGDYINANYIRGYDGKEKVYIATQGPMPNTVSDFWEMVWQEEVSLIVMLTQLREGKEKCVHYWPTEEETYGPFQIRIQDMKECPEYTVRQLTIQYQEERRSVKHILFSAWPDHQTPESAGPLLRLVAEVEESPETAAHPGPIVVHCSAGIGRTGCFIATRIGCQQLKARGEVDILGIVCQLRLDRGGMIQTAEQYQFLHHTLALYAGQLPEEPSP

[11] = Trypanosoma cruzi growth suppression in host cells – NIH3T3 host cells, beta-gal luminescence, confirmation (AID 2044); type: functional, cell-based;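 further: intracellular parasites grown in NIH/3T3 mouse fibroblasts as host cells; luminescent beta-galactosidase reporter signal from transgenic T. cruzi replicating inside host cells; inhibitors lower the luminescence signal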
[12] = NIH3T3 cell viability loss – ATP luminescence, mouse fibroblasts, counter-screen, dose response (AID 2010); type: functional, cell-based;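 further: cells exposed to compound for about 90 hours before reading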
Escherichia coli [13] = assay: microbe, parasite or virus in culture
HEK293 = assay: cells; type: functional, cell-based; conditions: Homo sapiens
[14] = biological target: T5, Nuclear receptor subfamily 0 group B member 1 (Homo sapiens, UniProt P51843); assay: Luminescence-based cell-based high throughput dose response assay for inhibitors of the orphan nuclear receptor subfamily 0, group B, member 1 (DAX1; NR0B1). [Related pubchem assays (depositor defined):AID504766, AID504790]; type: functional
T5 sequence (P51843 whole entry): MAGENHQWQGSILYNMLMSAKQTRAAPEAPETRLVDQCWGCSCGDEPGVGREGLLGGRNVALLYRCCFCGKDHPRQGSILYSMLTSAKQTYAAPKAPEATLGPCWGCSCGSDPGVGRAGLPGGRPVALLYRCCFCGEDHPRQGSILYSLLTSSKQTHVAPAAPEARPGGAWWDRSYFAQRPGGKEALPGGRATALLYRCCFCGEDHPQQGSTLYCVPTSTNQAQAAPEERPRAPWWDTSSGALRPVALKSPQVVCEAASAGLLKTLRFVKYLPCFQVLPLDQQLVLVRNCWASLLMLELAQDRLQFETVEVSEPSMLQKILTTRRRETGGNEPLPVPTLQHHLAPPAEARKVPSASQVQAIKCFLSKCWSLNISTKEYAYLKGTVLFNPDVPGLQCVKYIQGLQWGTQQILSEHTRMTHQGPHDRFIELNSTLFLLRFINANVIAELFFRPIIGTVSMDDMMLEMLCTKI

Vero [15] = assay: cells; type: functional, cell-based; conditions: Chlorocebus sabaeus
[16] = biological target: DNA dC->dU-editing enzyme APOBEC-3G (Homo sapiens, UniProt Q9HC16); assay: Dose Response confirmation of small molecule APOBEC3G DNA Deaminase Inhibitors via a fluorescence-based single-stranded DNA deaminase assay. [Related pubchem assays (depositor defined):AID493012, AID493028]; type: functional
Chain of DNA dC->dU-editing enzyme APOBEC-3G (Q9HC16 whole entry): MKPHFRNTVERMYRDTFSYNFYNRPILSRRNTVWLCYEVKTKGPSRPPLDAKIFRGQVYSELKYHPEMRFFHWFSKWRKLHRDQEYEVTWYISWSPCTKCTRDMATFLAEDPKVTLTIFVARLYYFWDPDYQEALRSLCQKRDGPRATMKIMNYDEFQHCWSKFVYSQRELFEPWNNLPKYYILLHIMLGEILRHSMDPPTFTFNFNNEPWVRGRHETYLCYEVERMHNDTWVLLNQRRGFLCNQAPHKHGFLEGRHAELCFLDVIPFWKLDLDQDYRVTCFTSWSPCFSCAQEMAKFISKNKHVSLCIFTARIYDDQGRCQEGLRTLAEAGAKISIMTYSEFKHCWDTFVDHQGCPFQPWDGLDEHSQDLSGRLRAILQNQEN

[17] = biological target: DNA dC->dU-editing enzyme APOBEC-3A (Homo sapiens, UniProt P31941); assay: A3A deaminase inhibition for selectivity – biochemical, dose response (AID 504722); type: functional
Chain of DNA dC->dU-editing enzyme APOBEC-3A (P31941 whole entry): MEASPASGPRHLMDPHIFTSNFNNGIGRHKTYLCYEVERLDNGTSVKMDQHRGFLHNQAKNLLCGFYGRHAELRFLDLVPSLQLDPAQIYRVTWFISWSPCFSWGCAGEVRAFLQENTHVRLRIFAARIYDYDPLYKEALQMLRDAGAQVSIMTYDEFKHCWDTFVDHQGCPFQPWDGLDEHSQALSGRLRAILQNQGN

Escherichia coli [18] = assay: microbe, parasite or virus in culture; remark: listed apart in the source
CAAX prenyl protease 1 = CAAX prenyl protease 1 (Saccharomyces cerevisiae S288c, UniProt P47154); assay: yeast CAAX protease Ste24 inhibition – biochemical, S. cerevisiae, plate reader, cherry-pick, dose response (AID 488815)
Chain of CAAX prenyl protease 1 (P47154 whole entry): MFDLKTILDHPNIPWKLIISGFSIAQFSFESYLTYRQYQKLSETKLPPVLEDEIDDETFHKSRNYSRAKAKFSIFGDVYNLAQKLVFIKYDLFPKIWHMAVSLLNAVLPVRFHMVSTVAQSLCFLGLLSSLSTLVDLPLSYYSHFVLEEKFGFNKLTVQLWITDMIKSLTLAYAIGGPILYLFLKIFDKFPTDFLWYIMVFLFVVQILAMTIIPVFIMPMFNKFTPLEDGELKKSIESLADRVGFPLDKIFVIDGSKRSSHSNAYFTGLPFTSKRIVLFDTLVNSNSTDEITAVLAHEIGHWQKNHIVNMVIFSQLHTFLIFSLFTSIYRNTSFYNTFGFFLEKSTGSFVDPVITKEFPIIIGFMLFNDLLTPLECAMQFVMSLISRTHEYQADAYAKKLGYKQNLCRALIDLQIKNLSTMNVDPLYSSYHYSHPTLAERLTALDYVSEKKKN

Trypsin = Trypsin (Sus scrofa, UniProt P00761); assay: trypsin protease activity blockade – biochemical, quenched peptide fluorescence, cherry-pick, selectivity assay for Rce1 protease inhibitor project, dose response (AID 488789)
Chain of Trypsin (P00761 whole entry): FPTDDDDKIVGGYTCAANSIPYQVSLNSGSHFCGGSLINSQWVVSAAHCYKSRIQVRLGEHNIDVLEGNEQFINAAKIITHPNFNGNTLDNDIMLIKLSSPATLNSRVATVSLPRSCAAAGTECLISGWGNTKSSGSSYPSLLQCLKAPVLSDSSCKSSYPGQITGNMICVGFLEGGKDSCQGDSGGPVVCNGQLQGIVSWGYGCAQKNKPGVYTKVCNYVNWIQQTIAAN

CAAX prenyl protease 2 = biological target: T6, CAAX prenyl protease 2 (Saccharomyces cerevisiae S288c, UniProt Q03530); type: biochemical
T6 sequence (Q03530 whole entry): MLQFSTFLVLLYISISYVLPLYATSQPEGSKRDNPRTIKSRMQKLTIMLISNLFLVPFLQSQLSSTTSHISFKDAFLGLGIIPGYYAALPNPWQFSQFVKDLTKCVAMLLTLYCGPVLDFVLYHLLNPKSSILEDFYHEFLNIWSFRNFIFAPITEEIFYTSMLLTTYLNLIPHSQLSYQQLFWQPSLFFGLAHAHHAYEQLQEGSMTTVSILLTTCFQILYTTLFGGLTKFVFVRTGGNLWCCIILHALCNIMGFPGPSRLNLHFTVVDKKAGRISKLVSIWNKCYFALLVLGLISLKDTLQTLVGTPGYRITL

[19] = biological target: Glucose-6-phosphate 1-dehydrogenase (Homo sapiens, UniProt P11413); assay: inhibition of Homo sapiens G6PD, dose series – biochemical, fluorescence, selectivity assay for P. falciparum G6PD inhibitor project, dose response (AID 504792); type: functional
Chain of Glucose-6-phosphate 1-dehydrogenase (P11413 whole entry): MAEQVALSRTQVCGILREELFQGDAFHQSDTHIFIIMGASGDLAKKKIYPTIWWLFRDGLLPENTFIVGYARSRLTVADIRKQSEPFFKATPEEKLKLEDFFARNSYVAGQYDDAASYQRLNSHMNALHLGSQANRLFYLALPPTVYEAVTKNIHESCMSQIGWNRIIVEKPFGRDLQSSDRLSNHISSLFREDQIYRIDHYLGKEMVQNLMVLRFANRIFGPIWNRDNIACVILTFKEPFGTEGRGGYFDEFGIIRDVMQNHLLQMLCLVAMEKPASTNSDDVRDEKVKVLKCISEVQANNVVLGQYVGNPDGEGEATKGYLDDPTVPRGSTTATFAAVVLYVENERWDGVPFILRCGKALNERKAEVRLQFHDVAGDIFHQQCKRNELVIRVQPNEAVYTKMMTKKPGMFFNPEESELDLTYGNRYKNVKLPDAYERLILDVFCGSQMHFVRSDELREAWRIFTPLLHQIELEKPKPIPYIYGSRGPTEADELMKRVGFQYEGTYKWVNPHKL

[20] = viability loss of HMLE_sh_eGFP cells – cell-based, luminescence, counter-screen for HMLE_sh_ECad selective toxicity project, dose response (AID 463074); type: functional, Homo sapiens;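 further: HMLE human mammary epithelial cells expressing control shRNA against eGFP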
Vero [21] = assay: cells; type: functional; conditions: Chlorocebus sabaeus
[22] = biological target: T7, Short transient receptor potential channel 4 (Mus musculus, UniProt Q9QUQ5); assay: calcium entry via TRPC4 opening agents – cell-based, HEK293 TRPC4/mu-opioid, Fluo-4 calcium, dose response (AID 434937); type: functional
T7 sequence (Q9QUQ5 whole entry): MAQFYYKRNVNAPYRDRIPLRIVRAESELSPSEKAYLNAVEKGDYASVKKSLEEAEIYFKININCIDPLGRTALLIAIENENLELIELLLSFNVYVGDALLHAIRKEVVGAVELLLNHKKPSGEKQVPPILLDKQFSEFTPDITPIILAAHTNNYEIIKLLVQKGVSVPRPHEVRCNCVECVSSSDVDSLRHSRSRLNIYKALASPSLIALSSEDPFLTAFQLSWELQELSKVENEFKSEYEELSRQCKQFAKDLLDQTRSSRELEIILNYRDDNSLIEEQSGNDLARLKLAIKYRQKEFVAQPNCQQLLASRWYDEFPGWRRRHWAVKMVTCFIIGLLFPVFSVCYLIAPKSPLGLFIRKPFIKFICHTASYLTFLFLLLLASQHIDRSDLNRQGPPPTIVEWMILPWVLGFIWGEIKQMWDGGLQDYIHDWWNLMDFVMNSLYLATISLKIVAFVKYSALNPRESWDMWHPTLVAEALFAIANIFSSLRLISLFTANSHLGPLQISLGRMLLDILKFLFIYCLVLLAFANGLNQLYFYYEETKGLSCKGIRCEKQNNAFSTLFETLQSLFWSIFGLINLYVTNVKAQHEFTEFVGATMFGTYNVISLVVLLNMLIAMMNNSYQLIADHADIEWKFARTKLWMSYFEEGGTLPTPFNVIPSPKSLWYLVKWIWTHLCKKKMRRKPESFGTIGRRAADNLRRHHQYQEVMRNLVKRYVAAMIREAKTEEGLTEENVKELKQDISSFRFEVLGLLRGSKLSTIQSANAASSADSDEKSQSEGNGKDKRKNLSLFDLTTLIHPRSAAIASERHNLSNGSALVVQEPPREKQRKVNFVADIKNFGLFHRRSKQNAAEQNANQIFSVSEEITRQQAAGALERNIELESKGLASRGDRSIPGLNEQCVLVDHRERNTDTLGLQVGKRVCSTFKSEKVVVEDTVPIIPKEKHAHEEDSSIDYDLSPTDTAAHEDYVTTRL

[23] = HGIII-sPLA2 enzyme inhibition potency – biochemical, QFRET, IC50, dose response (AID 743457);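 further: green fluorescence rise as the enzyme cleaves BODIPY PC-A2 in liposomes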

For COc1c(Cl)cc(Cl)cc1/C=C/C(=O)c1ccc(NC(=O)c2cccs2)cc1, the IC50 [1] was 2.56 µM (active), the AC50 [2] was 1.12 µM (active) and the IC50 [3] was 1.35 µM (active).
In the case of Cc1ccc(/N=c2\ssnc2Cl)cc1[N+](=O)[O-], the IC50 [4] was 4.46 µM (active) and the IC50 (Phosphomannomutase 2) was > 100 µM (inactive).
With O=C(O)[C@@H](O)c1ccccc1 the IC50 [5] was > 100 µM (not active), the IC50 [6] was > 100 µM (inactive) and the IC50 [7] was > 100 µM (not active). The IC50 [8] was > 100 µM (inactive), the IC50 [9] was > 100 µM (inactive) and the IC50 [10] was > 100 µM (not active).
With CN1/C(=C/C(=S)NC(=O)C2(C)CC2(Cl)Cl)C(C)(C)c2ccccc21 (stereo unspecified) the EC50 [11] was 3.4 µM (active), the IC50 [1] was 2.5 µM (active) and the IC50 [3] was 0.851 µM (active). For the same molecule, the EC50 [12] was > 60 µM (not active).
In the case of Cc1ccc(-c2[nH]nc3c2C(c2ccccc2)N(c2ccc(C(=O)O)cc2)C3=O)cc1 (stereo unspecified), the AC50 (Escherichia coli [13]) was 35.3 µM (active).
For Cc1ccc2nc(-c3ccc(NC(=S)NCC(C)(C)CN(C)C)cc3)sc2c1, the IC50 (HEK293) was > 67.5 µM (inactive), the IC50 [14] was > 67.5 µM (inactive) and the IC50 (Vero [15]) was 15.4 µM (active).
For COc1ccc(OC)c(/N=c2\ssnc2Cl)c1, the IC50 [16] was 15.4 µM (active), the IC50 [17] was > 100 µM (inactive) and the IC50 [4] was 4.35 µM (active). The IC50 (Phosphomannomutase 2) was > 100 µM (inactive).
With C/C=C(/C)C(=O)Nc1cccc(C2=NOC3(C2)C[C@H](C(N)=O)N(C(=O)c2ccc(Cl)cc2)C3)c1 (stereo partly specified) the AC50 (Escherichia coli [18]) was 48 µM (active).
In the case of CC(C)c1cc(=O)oc2c3c4c(cc12)CCCN4CCC3, the AC50 (CAAX prenyl protease 1) was 4 µM (active), the AC50 (Trypsin) was 24.1 µM (active) and the AC50 (CAAX prenyl protease 2) was > 100 µM (inactive).
For C=CCOc1c(Cl)cc(CNc2ccc3[nH]c(O)nc3c2)cc1OC, the IC50 [19] was > 80 µM (inactive).
In the case of Cn1c(C(=O)N2CCCC(C(=O)NCCCSC3CCCCC3)C2)cc2sccc21 (stereo unspecified), the AC50 [20] was 21.6 µM (active) and the AC50 [2] was 5.7 µM (active).
For Cc1ccc(P(=S)(c2ccc(C)o2)N2CCOCC2)o1, the AC50 [20] was 78.2 µM (active) and the AC50 [2] was > 195 µM (inactive).
With COc1ccc(C(=O)NC(=S)NNC(=O)c2cccc(C)c2)cc1 the CC50 (Vero [21]) was > 25 µM (active), the EC50 [22] was 3.35 µM (active) and the IC50 [23] was 75.7 µM (inactive). For the same molecule, the IC50 (Vero [15]) was 23.7 µM (active).
